For seven compounds, IC50 results are on record in patent US20240287121A1, “GALECTIN-3 INHIBITING C-GLYCOSIDE OXIMES” (GLYCOMIMETICS, INC., priority 2021, published 2024).

Structures are written as SMILES. pIC50: −log10 of the molar value.

By pIC50 is commonly meant −log10 of the IC50, conventionally taken in molar units.

For this assay, the target named is T1, galectin-3 (Homo sapiens, UniProt P17931).
T1 construct: purchased IBL IBATGPO414
T1 sequence (P17931 whole entry): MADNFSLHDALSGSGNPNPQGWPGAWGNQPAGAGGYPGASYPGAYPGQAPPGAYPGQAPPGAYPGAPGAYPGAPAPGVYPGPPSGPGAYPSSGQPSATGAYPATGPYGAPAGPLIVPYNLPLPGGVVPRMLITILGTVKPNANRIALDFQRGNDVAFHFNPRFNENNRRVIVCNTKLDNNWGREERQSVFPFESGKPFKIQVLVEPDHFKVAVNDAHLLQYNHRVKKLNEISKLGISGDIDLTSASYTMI
As to the kind of experiment: Galectin-3 Activity ELISA assay: inhibition of binding of galectin-3 to immobilized Galβ1-3GlcNAc polymer. To be noted: competitive ELISA; Galβ1-3GlcNAc polymer on streptavidin plate; A450 readout; read-out: Galectin-3 Antagonist Activity IC50. The text has this: An inhibition assay may be used to screen for antagonists of galectin-3. For example, an assay may be performed to characterize the capability of a compound described herein to inhibit interaction of galectin-3 with a Galβ1-3GlcNAc carbohydrate structure. The inhibition assay may be a competitive binding assay, which allows the determination of IC50 values. By way of example, a Galβ1-3GlcNAc polymer may be immobilized onto a matrix; a composition may be added to reduce nonspecific binding; the immobilized Galβ1-3GlcNAc polymer may be contacted with the candidate compound in the presence of galectin-3 group under conditions and for a time sufficient to permit galectin-3 to bind to the immobilized Galβ1-3GlcNAc polymer; the immobilized Galβ1-3GlcNAc polymer may be washed; and the amount of galectin-3 bound to the immobilized Galβ1-3GlcNAc polymer may be detected. Variations of such steps can be readily and routinely accomplished by a person of ordinary skill in the art.
Galectin-3 antagonists were evaluated for their ability to inhibit binding of galectin-3 to a Galβ1-3GlcNAc carbohydrate structure. The detailed protocol was as follows. A 1 μg/mL suspension of a Galβ1-3GlcNAcβ-3Galβ1-4GlcNAcβ-PAA-biotin polymer (Glycotech, catalog number 01-096) was prepared. A 100 μL aliquot of the polymer was added to the wells of a 96-well streptavidin-coated plate (R&D Systems, catalog number CP004). A 100 μL aliquot of 1× Tris Buffered Saline (TBS, Sigma, catalog number T5912-10×) was added to control wells. The polymer was allowed to bind to the streptavidin-coated wells for 1.5 hours at room temperature. The contents of the wells were discarded and 200 μL of 1×TBS containing 1% bovine serum albumin (BSA) was added to each well as a blocking reagent, and the plate was kept at room temperature for 30 minutes. The wells were washed three times with 1×TBS containing 0.1% BSA. A serial dilution of test compounds was prepared in a separate V-bottom plate (Corning, catalog number 3897). A 75 μL aliquot of the highest concentration of the compound to be tested was added to the first well in a column of the V-bottom plate, then 15 μl were serially transferred into 60 μL 1×TBS through the remaining wells in the column to generate a 1 to 5 serial dilution. A 60 μL aliquot of 2 ug/mL galectin-3 (IBL, catalog number IBATGPO414) was added to each well in the V-bottom plate. A 100 μL aliquot of the galectin-3/test compound mixture was transferred from the V-bottom plate into the assay plate containing the Galβ1-3GlcNAc polymer. Four sets of control wells in the assay plate were prepared in duplicate containing 1) both Galβ1-3GlcNAc polymer and galectin-3, 2) neither the polymer nor galectin-3, 3) galectin-3 only, no polymer, or 4) polymer only, no galectin-3. The plate was gently rocked for 1.5 hours at room temperature. The wells were washed four times with TBS/0.1% BSA. A 100 μL aliquot of anti-galectin-3 antibody conjugated to horse radish peroxidase (R&D Systems, from DGAL30 kit) was added to each well and the plate was kept at room temperature for 1 hour. The wells were washed four times with TBS/0.1% BSA. A 100 μL aliquot of TMB substrate solution was added to each well. The TMB substrate solution was prepared by making a 1:1 mixture of TMB Peroxidase Substrate (KPL, catalog number 5120-0048) and Peroxidase Substrate Solution B (KPL, catalog number 5120-0037). The plate was kept at room temperature for 10 to 20 minutes. The color development was stopped by adding 100 μL 10% phosphoric acid (RICCA Chemical Co., catalog number 5850-16). The absorbance at 450 nm (A450) was measured using a FlexStation 3 plate reader (Molecular Devices). Plots of A450 versus test compound concentration and IC50 determinations were made using GraphPad Prism 6.
Consider `CCC(=NOCC1CC1)[C@@H](OCc1ccc(Cl)cc1)[C@@H]1OC(CO)[C@H](O)C(n2cc(-c3cc(F)c(F)c(F)c3)nn2)C1O` (stereo partly shown) [Compound 41], for which the negative logarithm of the IC50 (pIC50) was 5.55. Take `[2H]C([2H])([2H])OC1C(n2cc(-c3cc(F)cc(F)c3)nn2)[C@@H](O)C(CO)O[C@H]1[C@H](OCc1ccc(Cl)cc1)/C(=N/OC)C([2H])([2H])C([2H])([2H])[2H]` (stereo partly shown) [Compound 35]: the pIC50 is 5.16. Regarding `[2H]C([2H])([2H])OC1C(n2cc(-c3cc(F)c(F)c(F)c3)nn2)[C@@H](O)C(CO)O[C@H]1[C@H](OCc1ccc(Cl)cc1)C(C)=NOCC` (stereo partly shown) [Compound 36], the pIC50 is 4.99.

For the compound `CCC(=NOC)[C@@H](OCc1ccc(Cl)cc1)[C@@H]1OC(CO)[C@H](O)C(n2cc(-c3cc(F)c(F)c(F)c3)nn2)C1O` (stereo partly shown) [Compound 34], the negative logarithm of the IC50 (pIC50) was 6.30. Take `[2H]C([2H])([2H])OC1C(n2cc(-c3cc(F)c(F)c(F)c3)nn2)[C@@H](O)C(CO)O[C@H]1[C@H](OCc1ccc(Cl)cc1)C(C)=NOCC(C)C` (stereo partly shown) [Compound 38]: the negative-log IC50 (pIC50) was 4.78.

In the case of `[2H]C([2H])([2H])OC1C(n2cc(-c3cc(F)c(F)c(F)c3)nn2)[C@@H](O)C(CO)O[C@H]1[C@H](OCc1ccc(Cl)cc1)C(C)=NOCC1CC1` (stereo partly shown) [Compound 37], the pIC50 is 4.97.

As for `CCON=C(CC)C(OCc1ccc(Cl)cc1)C1OC(CO)C(O)C(n2cc(-c3cc(F)c(F)c(F)c3)nn2)C1O` (stereo not shown) [Compound 40], the negative logarithm of the IC50 (pIC50) was 6.05.
